Assay results as given in patent US20250304623A1, “PEPTIDES FOR INTRACELLULAR DELIVERY” (UNIVERSIDADE DE SANTIAGO DE COMPOSTELA, priority 2022, published 2025).
*: point of attachment. NHNH2 = NN*

Experiments:
[1] = system: A549 cells expressing EGFP; assay: Cas9-RNP delivery against EGFP (gene editing, plate reader), A549; format: cell-based; conditions: A549 cells
Protocol: To generate an EGFP expressing HeLa cell line, HeLa cells were transfected with EGFP pDNA (pEGFP-C1, Clontech) and stable transfectants were selected with 400 μg/mL of G-418 (Millipore). Green clones were selected by epifluorescence microscopy and tested for EGFP expression stability through several passages. […] All other EGFP-expressing cell lines were obtained in a similar way from parent non-EGFP-expressing cell lines.
Cells expressing EGFP were seeded in a 96 well plate the day before the experiment at a concentration of 50,000 cell/mL (100 μL/w) in DMEM+10% FBS+1% Gln-Abt. For robotic library screening, the delivery of Cas9-RNP against EGFP (RNP designed to knock-out the gene encoding for the enhanced green fluorescent protein (EGFP)) was performed. For RNP assembly, 9.2 μL of crRNA and 9.2 μL of tracrRNA were mixed in 211.6 μL of Nuclease-Free Duplex Buffer (IDT), incubated for 5 min at 95° C. and slowly cooled at rt (see I. Lostalé-Seijo, et al. Peptide/Cas9 nanostructures for ribonucleoprotein cell membrane transport and gene edition, Chem. Sci., 2017). Cas9 protein was dissolved in DMEM at a final concentration of 4 μM and equal volumes of the RNA complex and Cas9 were mixed and incubated for 5 min at rt. 75 μL of the corresponding amphiphile concentrations were added to 5 μL of RNP at 2 μM. The mixture was shaken for 30 min at room temperature before the addition to the cells. The cell medium was aspirated, and cells were washed twice with PBS. Cells were covered with 30 μL of DMEM and 20 μL of the RNP/amphiphile complexes were added to the cells (final peptide concentrations=2.5, 5 and 10 μM; final Cas9-RNP concentration=50 nM) and incubated for 4 h. After the incubation, the medium was replaced by 100 μL of fresh DMEM supplemented with 10% FBS. The total EGFP fluorescence was quantified after 72 h in a plate reader (FIG. 2, Table 1 (right) and Table 6). All experiments were done in triplicate.
(§1) Tables 1-7: RLuc (pDNA) or EGFP (mRNA) expression levels were normalized to Lipofectamine reagents (value=1) and expressed as fold-times signal increase. In the case of siRNA, the siRNA treated cells fluorescence was compared with siMOCK control fluorescence, while Cas9-RNP mediated knockout was measured against the fluorescence of untreated cells. In both siRNA and Cas9-RNP, values are expressed as % fluorescence reduction. Amphiphile concentration was 5 μM in all cases. All experiments were performed in triplicate.
Tables 26-31 show the mean (triplicates) percentage of gene editing, accounted by GFP fluorescence intensity decrease (% of reduction), measured after the transfection of Cas9-RNP by different amphiphiles at different concentrations in a variety of cell lines. Background values, accounted by untreated control cells, were subtracted for processing.

A549 cells = assay: EGFP mRNA delivery, robotic library screening, A549; format: cell-based
Protocol: Cells were seeded in a 96 well plate the day before the experiment at a concentration of 50,000 cell/mL (100 μL/w) in DMEM+10% FBS+1% Gln-Abt. For robotic library screening, the delivery of EGFP-mRNA (from TriLink, fully substituted with 5-methoxyuridine, capped and polyadenylated; TriLink, CleanCap® EGFP mRNA (5moU), ref. L-7201) in six different cell lines was performed. Amphiphilic molecule stock solutions were prepared in DMSO as described above and diluted in DMEM to afford a range of concentrations. The solutions of EGFP-mRNA/amphiphilic molecule complexes were freshly prepared prior to the transfection experiments. 35 μL of the corresponding amphiphile were added to 10 μL of a solution of EGFP-mRNA at 10 ng/μL in DMEM. The mixture was shaken for 30 min at room temperature before the addition to the cells. The cell medium was aspirated, and cells were washed with PBS twice. Cells were covered with 39 μL of DMEM and 11 μL of the complex's solution were added to the cells and incubated for 4 h (final concentration of peptide=2.5, 5 and 10 μM; final concentration of EGFP-mRNA=25 ng/well). After the incubation, the medium was replaced by 100 μL of fresh DMEM supplemented with 10% FBS. The total EGFP fluorescence was quantified after 72 h in a well plate reader. Amphiphile transfection efficiency was compared and normalized to Lipofectamine® MessengerMax efficiency (value of 1 in Tables 1-5 and 7; double underlined numbers). All experiments were done in triplicate.
as §1
Tables 14-19 show the mean (triplicates) fluorescence intensity measured after the transfection of EGFP mRNA by different amphiphiles at different concentrations in a variety of cell lines. Background fluorescence values, accounted by untreated control cells, were subtracted for processing.

Ac-RRLK*RLLRRLK*RLK*RRL-NH2 (Ac-RRLK(NHNH2)RLLRRLK(NHNH2)RLK(NHNH2)RRL-NH2; not fully specified; printed as Ac-RRLK*RLLRRLK*RLK*RRL-NH2; also: K*4,K*11,K*14: native or modified lysine (ε-amide to a linker)) [Peptide 17.3]
percentage of gene editing, GFP fluorescence intensity decrease (% of reduction) ([1]; Dodecanal, 10 μM): 75%
percentage of gene editing, GFP fluorescence intensity decrease (% of reduction) ([1]; Dodecanal, 15 μM): 34%
percentage of gene editing, GFP fluorescence intensity decrease (% of reduction) ([1]; Myristoleyl, 5 μM): 17%
percentage of gene editing, GFP fluorescence intensity decrease (% of reduction) ([1]; Oleyl, 10 μM): 72%
percentage of gene editing, GFP fluorescence intensity decrease (% of reduction) ([1]; Oleyl, 15 μM): 34%
percentage of gene editing, GFP fluorescence intensity decrease (% of reduction) ([1]; Palmitoleyl, 5 μM): 17%
percentage of gene editing, GFP fluorescence intensity decrease (% of reduction) ([1]; Palmitoleyl, 10 μM): 60%
percentage of gene editing, GFP fluorescence intensity decrease (% of reduction) ([1]; Palmitoleyl, 15 μM): 72%
percentage of gene editing, GFP fluorescence intensity decrease (% of reduction) ([1]; Petroselinyl, 5 μM): 23%
percentage of gene editing, GFP fluorescence intensity decrease (% of reduction) ([1]; Petroselinyl, 15 μM): 66%
mean fluorescence intensity (EGFP mRNA) (A549 cells; Myristoleyl, 2.5 μM): 563
mean fluorescence intensity (EGFP mRNA) (A549 cells; Myristoleyl, 5 μM): 309
mean fluorescence intensity (EGFP mRNA) (A549 cells; Petroselinyl, 2.5 μM): 791
mean fluorescence intensity (EGFP mRNA) (A549 cells; Petroselinyl, 5 μM): 440
mean fluorescence intensity (EGFP mRNA) (A549 cells; Petroselinyl, 10 μM): 274
